In paper PMC11940194, “Synthesis, Antiproliferative Activity, and ADME Profiling of Novel Racemic and Optically Pure Aryl-Substituted Purines and Purine Bioisosteres” (Biomolecules, 2025):

What was measured:
Format in all cases: cell-based, human
[1] = tested on: breast adenocarcinoma (MCF7) cells; assay: Antiproliferative MTT assay, MCF-7; settings: for IC50: Homo sapiens, MCF7, 72 h incubation, MTT, mean ± SD; for SI (MCF-7): SI = [IC50 HFF]/[IC50 MCF-7]
Procedure: (§1) The human ATCC tumor cell lines breast adenocarcinoma (MCF7), colorectal carcinoma (HT-29), pancreatic ductal adenocarcinoma (CFPAC-1), hepatocellular carcinoma (HepG2), and normal skin fibroblasts (HFF) derived from ATCC (American Type Culture Collection) were cultured in Dulbecco’s Modified Eagle Medium (DMEM) or Minimum Essential Medium (MEM) supplemented with 10% fetal bovine serum (FBS), 2 mM L-glutamine, 100 U/mL penicillin, and 100 µg/mL streptomycin (Lonza, Basel, Switzerland) in a humidified atmosphere with 5% CO2 at 37 °C. For the experiment, carcinoma cell lines and normal human cell lines were seeded in 96-well microtiter plates at a density of 3000 cells per well and 5000 cells per well, respectively, depending on the doubling time of the specific cell line. The test substances were then added at fivefold, tenfold dilutions (0.01 to 100 µM), freshly prepared in the growth medium on the day of testing, and incubated for a further 72 h. After 72 h of incubation, the growth rate of the cells was determined using the MTT assay according to the manufacturer’s guidelines. […] The IC50 values were calculated from the dose–response curves using linear regression analysis. The experiment was performed in tetraplicates in two individual experiments.
(§2) Newly synthesized compounds were evaluated for their cytotoxic activity in vitro against four human cancer cell lines, including human breast adenocarcinoma (MCF-7), ductal pancreatic adenocarcinoma (CFPAC-1), colorectal carcinoma (HT-29), and hepatocellular carcinoma (HepG2), as well as on non-cancerous skin fibroblasts (HFF-1), to check for non-specific toxicity. Furthermore, 5-Fluorouracil (5-FU) was used as a reference drug. The results are expressed as 50% inhibitory concentration (IC50) values and are listed in Table 2, Table 3, Table 4 and Table 5.

[2] = tested on: pancreatic ductal adenocarcinoma (CFPAC-1) cells; assay: Antiproliferative MTT assay, CFPAC-1; settings: for IC50: Homo sapiens, CFPAC-1, 72 h, 72 h incubation, MTT, mean ± SD; for SI (CFPAC-1): SI = [IC50 HFF]/[IC50 CFPAC-1]
Procedure: as §1, §2

[3] = tested on: colorectal carcinoma (HT-29) cells; assay: Antiproliferative MTT assay, HT-29; settings: for IC50: Homo sapiens, HT-29, 72 h, 72 h incubation, MTT, mean ± SD; for SI (HT-29): SI = [IC50 HFF]/[IC50 HT-29]
Procedure: as §1, §2

[4] = tested on: hepatocellular carcinoma (HepG2) cells; assay: Antiproliferative MTT assay, HepG2; settings: for IC50: Homo sapiens, HepG2, 72 h, 72 h incubation, MTT, mean ± SD; for SI (HepG2): SI = [IC50 HFF]/[IC50 HepG2]
Procedure: as §1, §2

[5] = tested on: normal skin fibroblasts (HFF-1); assay: Cytotoxicity MTT assay, normal skin fibroblasts; settings: Homo sapiens, HFF-1, 72 h, 72 h incubation, mean ± SD
Procedure: as §1, §2

SMILES | IC50 [1] | IC50 [2] | IC50 [3] | IC50 [4] | SI (CFPAC-1) [2] | IC50 [5] | SI (HT-29) [3] | SI (HepG2) [4] | SI (MCF-7) [1]
OCC(c1ccc(C(F)(F)F)cc1)n1cc(Cn2cnc3ccccc32)nn1 (centres unmarked) [Compound 35a, 1-((1-(2-Hydroxy-1-(4-(trifluoromethyl)phenyl)ethyl)-1H-1,2,3-triazol-4-yl)methyl)-1H-benzimidazole] | 30 ± 0.9 µM | 27 ± 0.7 µM | 61 ± 0.7 µM | 59 ± 4.6 µM | >3.7 | > 100 µM | – | – | –
OC(Cn1cc(Cn2cnc3ccccc32)nn1)c1ccc(C(F)(F)F)cc1 (centres unmarked) [Compound 35b, 1-((1-(2-Hydroxy-2-(4-(trifluoromethyl)phenyl)ethyl)-1H-1,2,3-triazol-4-yl)methyl)-1H-benzimidazole] | 31 ± 13.7 µM | 36 ± 1.3 µM | 67 ± 2.9 µM | 67 ± 3.5 µM | 0.6 | 22 ± 18.1 µM | – | – | –
OC(Cn1cc(Cn2cnc3c(Cl)ncnc32)nn1)c1ccccc1 (centres unmarked) [Compound 36b, 6-Chloro-9-((1-(2-hydroxy-2-phenylethyl)-1H-1,2,3-triazol-4-yl)methyl)-9H-purine] | 69 ± 10.6 µM | 65 ± 18.9 µM | 61 ± 2.4 µM | 41 ± 10.6 µM | – | 80 ± 14 µM | 1.3 | 1.9 | –
OCC(c1ccccc1)n1cc(Cn2ccc3c(Cl)ncnc32)nn1 (centres unmarked) [Compound 41a, 4-Chloro-7-((1-(2-hydroxy-1-phenylethyl)-1H-1,2,3-triazol-4-yl)methyl)-7H-pyrrolo[2,3-d]pyrimidine] | 39 ± 7.1 µM | 33 ± 4.5 µM | 33 ± 3.2 µM | 38 ± 1.8 µM | 1.9 | 62 ± 23.3 µM | – | – | 1.6
OC(Cn1cc(Cn2ccc3c(Cl)ncnc32)nn1)c1ccccc1 (centres unmarked) [Compound 41b, 4-Chloro-7-((1-(2-hydroxy-2-phenylethyl)-1H-1,2,3-triazol-4-yl)methyl)-7H-pyrrolo[2,3-d]pyrimidine] | 44 ± 17.4 µM | 49 ± 11.3 µM | 50 ± 1.3 µM | 50 ± 10.2 µM | 0.9 | 44 ± 14.1 µM | – | – | 1.0
OC(Cn1cc(Cn2ccc3c(Cl)ncnc32)nn1)c1ccc(F)cc1 (centres unmarked) [Compound 42b, 4-Chloro-7-((1-(2-hydroxy-2-(4-fluorophenyl)ethyl)-1H-1,2,3-triazol-4-yl)methyl)-7H-pyrrolo[2,3-d]pyrimidine] | 45 ± 5.7 µM | 34 ± 3.2 µM | 49 ± 14.6 µM | 38 ± 11 µM | 1.5 | 51 ± 3.6 µM | – | – | 1.1
OCC(c1ccc(Cl)cc1)n1cc(Cn2ccc3c(Cl)ncnc32)nn1 (centres unmarked) [Compound 43a, 4-Chloro-7-((1-(2-hydroxy-1-(4-chlorophenyl)ethyl)-1H-1,2,3-triazol-4-yl)methyl)-7H-pyrrolo[2,3-d]pyrimidine] | 24 ± 8.8 µM | – | 33 ± 6.1 µM | 33 ± 4.2 µM | 5.1 | 41 ± 16.3 µM | – | – | 1.7
OC(Cn1cc(Cn2ccc3c(Cl)ncnc32)nn1)c1ccc(Cl)cc1 (centres unmarked) [Compound 43b, 4-Chloro-7-((1-(2-hydroxy-2-(4-chlorophenyl)ethyl)-1H-1,2,3-triazol-4-yl)methyl)-7H-pyrrolo[2,3-d]pyrimidine] | 39 ± 10.1 µM | 48 ± 4.9 µM | 28 ± 3.8 µM | 46 ± 2.2 µM | 0.7 | 32 ± 14.1 µM | – | – | 0.8
OC(Cn1cc(Cn2cnc3c(Cl)nccc32)nn1)c1ccc(F)cc1 (centres unmarked) [Compound 47b, 4-Chloro-1-((1-(2-hydroxy-2-(4-fluorophenyl)ethyl)-1H-1,2,3-triazol-4-yl)methyl)-1H-imidazo[4,5-c]pyridine] | 21 ± 2.6 µM | 18 ± 0.8 µM | 65 ± 12.6 µM | 55 ± 8.8 µM | – | 18 ± 2.9 µM | – | 0.3 | –
OCC(c1ccc(Cl)cc1)n1cc(Cn2cnc3c(Cl)nccc32)nn1 (centres unmarked) [Compound 48a, 4-Chloro-1-((1-(2-hydroxy-1-(4-chlorophenyl)ethyl)-1H-1,2,3-triazol-4-yl)methyl)-1H-imidazo[4,5-c]pyridine] | 96 ± 1.8 µM | > 100 µM | > 100 µM | > 100 µM | – | > 100 µM | – | – | –
OC(Cn1cc(Cn2cnc3c(Cl)nccc32)nn1)c1ccc(Cl)cc1 (centres unmarked) [Compound 48b, 4-Chloro-1-((1-(2-hydroxy-2-(4-chlorophenyl)ethyl)-1H-1,2,3-triazol-4-yl)methyl)-1H-imidazo[4,5-c]pyridine] | > 100 µM | > 100 µM | > 100 µM | > 100 µM | – | > 100 µM | – | – | –

More lines, main results first:

IC50 [1] | IC50 [2] | IC50 [3] | IC50 [4] | SMILES | SI (CFPAC-1) [2] | IC50 [5] | SI (HT-29) [3] | SI (HepG2) [4] | SI (MCF-7) [1]
53 ± 5.5 µM | 60 ± 0.9 µM | 54 ± 7.4 µM | 55 ± 2.4 µM | OCC(c1ccccc1)n1cc(Cn2cnc3c(Cl)ncnc32)nn1 (centres unmarked) [Compound 36a, 6-Chloro-9-((1-(2-hydroxy-1-phenylethyl)-1H-1,2,3-triazol-4-yl)methyl)-9H-purine] | – | > 100 µM | >1.9 | >1.8 | –
38 ± 15.7 µM | 50 ± 12.4 µM | 41 ± 2.3 µM | 37 ± 12.9 µM | OCC(c1ccc(F)cc1)n1cc(Cn2cnc3c(Cl)ncnc32)nn1 (centres unmarked) [Compound 37a, 6-Chloro-9-((1-(2-hydroxy-1-(4-fluorophenyl)ethyl)-1H-1,2,3-triazol-4-yl)methyl)-9H-purine] | – | 64 ± 6.3 µM | 1.6 | 1.7 | –
49 ± 9.9 µM | 56 ± 5.5 µM | 46 ± 9.9 µM | 54 ± 6 µM | OC(Cn1cc(Cn2cnc3c(Cl)ncnc32)nn1)c1ccc(F)cc1 (centres unmarked) [Compound 37b, 6-Chloro-9-((1-(2-hydroxy-2-(4-fluorophenyl)ethyl)-1H-1,2,3-triazol-4-yl)methyl)-9H-purine] | – | 59 ± 9.2 µM | 1.3 | 1.1 | –
24 ± 8.8 µM | 48 ± 4.9 µM | 33 ± 6.06 µM | 34 ± 4.2 µM | OCC(c1ccc(Cl)cc1)n1cc(Cn2cnc3c(Cl)ncnc32)nn1 (centres unmarked) [Compound 38a, 6-Chloro-9-((1-(2-hydroxy-1-(4-chlorophenyl)ethyl)-1H-1,2,3-triazol-4-yl)methyl)-9H-purine] | – | 41 ± 16.3 µM | 1.2 | 1.2 | –
51 ± 8.9 µM | 36 ± 8.2 µM | 56 ± 2.8 µM | 49 ± 13.3 µM | OC(Cn1cc(Cn2cnc3c(Cl)ncnc32)nn1)c1ccc(Cl)cc1 (centres unmarked) [Compound 38b, 6-Chloro-9-((1-(2-hydroxy-2-(4-chlorophenyl)ethyl)-1H-1,2,3-triazol-4-yl)methyl)-9H-purine] | – | 31 ± 5.3 µM | 0.6 | 0.6 | –
39 ± 16.9 µM | 36 ± 2.2 µM | 39 ± 1.9 µM | 47 ± 13.5 µM | OCC(c1ccc(F)cc1)n1cc(Cn2ccc3c(Cl)ncnc32)nn1 (centres unmarked) [Compound 42a, 4-Chloro-7-((1-(2-hydroxy-1-(4-fluorophenyl)ethyl)-1H-1,2,3-triazol-4-yl)methyl)-7H-pyrrolo[2,3-d]pyrimidine] | 1.4 | 51 ± 16.5 µM | – | – | 1.3
63 ± 8.4 µM | 51 ± 6.5 µM | > 100 µM | > 100 µM | OCC(c1ccc(F)cc1)n1cc(Cn2cnc3c(Cl)nccc32)nn1 (centres unmarked) [Compound 47a, 4-Chloro-1-((1-(2-hydroxy-1-(4-fluorophenyl)ethyl)-1H-1,2,3-triazol-4-yl)methyl)-1H-imidazo[4,5-c]pyridine] | – | 75 ± 14.2 µM | – | – | –
